Results from US10508109B2 (priority 2015, dated 2019).

Legend:
[1] = test system: A549; test: Cell-based assay, anti-proliferative activity (Cell Counting Kit-8, 72 hours); details: Homo sapiens; A549 cells, Cell Counting Kit-8, 72 hours; read-out: IC50 (μM) A549
In short: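 IC50 values come from growth read-outs taken after the cells' exposure to each candidate inhibitor. Cells had been plated in 96-well microtiter plates beforehand.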

[2] = test system: CCD-18Co; test: as above; details: Homo sapiens; CCD-18Co cells, Cell Counting Kit-8, 72 hours; read-out: IC50 (μM) CCD-18Co
In short: (§1)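 Cells were seeded in 96-well plates and exposed to the inhibitors for 72 hours, after which growth was measured with Cell Counting Kit-8. IC50 was derived from a serial dilution series of 0, 1.5625, 3.125, 6.25, 12.5, 25, 50 and 100 micro-M.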

[3] = test system: HCT-116; test: as above; details: Homo sapiens; HCT-116 cells, Cell Counting Kit-8, 72 hours; read-out: IC50 (μM) HCT-116
In short: as §1

[4] = test system: HFL1; test: as above; details: Homo sapiens; HFL1 cells, Cell Counting Kit-8, 72 hours; read-out: IC50 (μM) HFL1
In short: as §1

[5] = test system: PC14; test: as above; details: Homo sapiens, PC-14; PC14 cells, Cell Counting Kit-8, 72 hours; read-out: IC50 (μM) PC14
In short: as §1

[6] = target: SUV39H2 (Homo sapiens (Human), UniProt Q9H5I1); details: read-out: IC50 (μM) Suv 39H2 assay; enzyme assay
Chain of SUV39H2 (Q9H5I1 whole entry): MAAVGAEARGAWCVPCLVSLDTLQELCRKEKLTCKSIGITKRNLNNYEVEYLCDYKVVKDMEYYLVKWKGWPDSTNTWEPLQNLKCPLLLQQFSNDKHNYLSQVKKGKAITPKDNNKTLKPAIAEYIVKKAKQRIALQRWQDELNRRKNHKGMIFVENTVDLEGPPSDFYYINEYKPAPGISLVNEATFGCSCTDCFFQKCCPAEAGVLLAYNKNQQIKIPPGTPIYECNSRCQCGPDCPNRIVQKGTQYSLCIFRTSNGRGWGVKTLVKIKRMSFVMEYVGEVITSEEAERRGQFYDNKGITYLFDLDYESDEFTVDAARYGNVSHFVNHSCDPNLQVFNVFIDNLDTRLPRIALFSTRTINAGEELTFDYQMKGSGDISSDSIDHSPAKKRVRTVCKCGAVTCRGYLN

| Structure (SMILES) | IC50 [1] [µM] | IC50 [2] [µM] | IC50 [3] [µM] | IC50 [4] [µM] | IC50 [5] [µM] | IC50 [6] [µM] |
| --- | --- | --- | --- | --- | --- | --- |
| COc1cc(OC)c(-c2cn3ccc(N4CCN(CCN5CCCCC5)CC4)cc3n2)cc1Cl [Example 135, 2-(5-chloro-2,4-dimethoxyphenyl)-7-(4-(2-(piperidin-1-yl)ethyl)piperazin-1-yl)imidazo[1,2-a]pyridine] | 3 | 2.8 | 2.4 | 4.8 | 2.6 | 0.0128 |
| COc1cc(OC)c(-c2cn3ccc(N4CCN(CCN5CCN(C(=O)OC(C)(C)C)CC5)CC4)cc3n2)cc1Cl [Example 136, tert-butyl 4-(2-(4-(2-(5-chloro-2,4-dimethoxyphenyl)imidazo[1,2-a]pyridin-7-yl)piperazin-1-yl)ethyl)piperazine-1-carboxylate] | 1.5 | 1.8 | 1.5 | 1.8 | 2.2 | 0.0166 |
| COc1cc(OC)c(-c2cn3ccc(N4CCN(CCC(N)=O)CC4)cc3n2)cc1Cl [Example 137, 3-(4-(2-(5-chloro-2,4-dimethoxyphenyl)imidazo[1,2-a]pyridin-7-yl)piperazin-1-yl)propanamide] | 24 | 14 | 14 | 13 | 12 | 0.00454 |
| COc1cc(OC)c(-c2cn3ccc(N4CCNC4=O)cc3n2)cc1Cl [Example 138, 1-(2-(5-chloro-2,4-dimethoxyphenyl)imidazo[1,2-a]pyridin-7-yl)-imidazolidin-2-one] | 5.2 | 2.2 | 16 | 5.5 | 3.6 | 0.0201 |
| COc1cc(OCCCN(C)C)c(-c2cn3ccc(N4CCNCC4)cc3n2)cc1Cl [Example 139, 3-{4-chloro-5-methoxy-2-[7-(piperazin-1-yl)imidazo[1,2-a]pyridin-2-yl]phenoxy}-N,N-dimethylpropan-1-amine] | 1.7 | 2.5 | 2.4 | 1.6 | 2.1 | 0.025 |
| CCOC(=O)CCN1CC=C(c2ccn3cc(-c4cc(Cl)c(OC)cc4OC)nc3c2)CC1 [Example 140, ethyl 3-(4-(2-(5-chloro-2,4-dimethoxyphenyl)imidazo[1,2-a]pyridin-7-yl)-5,6-dihydropyridin-1(2H)-yl)propanoate] | 25 | 56 | 16 | 27 | 12 | 0.0578 |
| COc1cc(OC)c(-c2cn3ccc(N4CCN(CCN5CCNCC5)CC4)cc3n2)cc1Cl [Example 142, 2-(5-chloro-2,4-dimethoxyphenyl)-7-(4-(2-(piperazin-1-yl)ethyl)piperazin-1-yl)imidazo-[1,2-a]pyridine] | 6.6 | 7.8 | 8.2 | 7.1 | 8.7 | 0.00785 |
| COc1cc(OC)c(-c2cn3ccc(N4CCN(CCN5CCCC5)CC4)cc3n2)cc1Cl [Example 143, 2-(5-chloro-2,4-dimethoxyphenyl)-7-(4-(2-(pyrrolidin-1-yl)ethyl)piperazin-1-yl)imidazo[1,2-a]pyridine] | 4 | 2.7 | 8.1 | 8.5 | 4.4 | 0.0044 |
| COc1cc(OC)c(-c2cn3ccc(C4=CCN(CCN5CCOCC5)CC4)cc3n2)cc1Cl [Example 144, 4-(2-{4-[2-(5-chloro-2,4-dimethoxyphenyl)imidazo[1,2-a]pyridin-7-yl]-5,6-dihydropyridin-1(2H)-yl}ethyl)morpholine] | 3.9 | 6.3 | 5.9 | 7 | 1.5 | 0.0191 |
| COc1cc(OC)c(-c2cn3ccc(N4CCN(C(=O)OC(C)(C)C)CC4)nc3n2)cc1Cl [Example 145, tert-butyl 4-[2-(5-chloro-2,4-dimethoxyphenyl)imidazo[1,2-a]pyrimidin-7-yl]piperazine-1-carboxylate] | 1.9 | 2.8 | 3.1 | 2.8 | 1.5 | 0.0738 |
